Activity calls are given as the source filed them.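 How the source made its calls: active means 40% activation versus positive control reached by fitted dose-response curve at or below highest valid tested dose; inconclusive means poor fit quality, or flat fit with activation between 30% and 70%; inactive means the rest.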

The first experiment in a line: Xi-linked GFP reactivating small molecules – imaging, 68-5-11 mouse fibroblasts, cherry-pick, dose response (AID 743394).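 Further: sensitizer 5-aza-dC present in the wells at 0.5 mM final.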 The settings on record: 68-5-11 mouse fibroblast XiGFP reporter, % GFP-positive imaging, 3 d; at 19.5 µM (top of the series).
As for `O=[N+]([O-])c1ccc(O)c([N+](=O)[O-])c1`, the activation was -0.014% (inactive).
On to `O=C(c1cccc2ccccc12)C1CCCN(Cc2ccon2)C1` (configuration not stated), for which the activation was 0.107% (inactive).
Consider `O=C(Cc1ccccn1)N1CCCCN2[C@H](C1)[C@@H](c1ccc(-c3ccccc3F)cc1)[C@@H]2CO`, for which the activation is 1.33% (inactive).
In the case of `O=c1[nH]c(=O)n(CCC2=CCCCC2)c(O)c1/C=N/Nc1ccccc1`, the activation was -0.002% (inactive).
On to `COCCCn1c(N)c(C(=O)Nc2ccccc2)c2nc3ccccc3nc21`, for which the activation was -0.127% (inactive).
Regarding `Cc1ccc2[nH]c(=S)n(-c3cccnc3)c(=O)c2c1`, the activation was -0.035% (inactive).

The same experiment, now with this note: 68-5-11 mouse fibroblast XiGFP reporter, % GFP-positive imaging, 3 d; at 19.5 µM (top of the series); cells co-treated with 5-aza-dC sensitizer; scaled: neutral wells 0, ellipticine wells 100.
On to `O=C(Nc1ccccc1)N1C[C@@H]2[C@H](c3ccccc31)[C@H](CO)N2C(=O)c1ccccc1F`, for which the activation was 0.2% (inactive).
For the molecule `OC[C@@H]1Nc2ccc(C#Cc3ccccc3)cc2[C@H]2[C@@H]1CCN2Cc1nccs1`, the activation is 0.161% (inactive).
Regarding `COc1ccc(OC)c(NC(=O)Nc2ccc3[nH]ccc3c2)c1`, the activation was -0.035% (inactive).
Consider `Cn1c2ccccc2c2cnn(CC(=O)Nc3ccccc3Br)c(=O)c21`, for which the activation was 0.034% (inactive).
Consider `C/C=C/c1ccc(C2[C@H]3CNC[C@@H]2N3Cc2cc(-c3ccccc3)on2)cc1` (some centres not stated), for which the activation was -0.031% (inactive).
`O=C(c1nc(SCc2ccc([N+](=O)[O-])cc2)n2ccccc12)C(F)(F)F`: the activation was 0.007% (inactive).
Consider `Cc1ccc(NC(=O)c2ncn(CCCNCCCN(C)C)n2)cc1C`, for which the activation is 0.041% (inactive).
`CCN1CCN(c2cc(C)c3cc(NC(=O)c4cccs4)ccc3n2)CC1`: the activation is -0.032% (inactive).
In the case of `CCOC(=O)c1ccc(NC(=O)C2CCC(CNc3c(N4CCOCC4)c(=O)c3=O)CC2)cc1` (configuration not stated), the activation was 0.016% (inactive).
For `CCCCOc1nc2ccccc2nc1NS(=O)(=O)c1ccc(F)cc1`, the activation was 0.851% (inactive).
On to `C[C@@H]1CN([C@@H](C)CO)C(=O)c2cc(NS(C)(=O)=O)ccc2O[C@@H](C)CCCCO[C@@H]1CN(C)Cc1ccccc1`, for which the activation is 0.016% (inactive).
In the case of `Cc1nnc(SCc2cc(=O)oc3ccc4ccccc4c23)n1Cc1ccccc1`, the activation was -0.027% (inactive).
Regarding `Cc1ncsc1C(=O)Nc1cccc(C(F)(F)F)c1`, the activation was -0.075% (inactive).
Still for that read-out and setting: in the case of `COc1ccccc1CNC(=O)COC(=O)COc1ccccc1F` it was 0.549% (inactive); in that of `COc1ccc(-n2nc(C#N)c(Cl)cc2=O)cc1`, 0.745% (inactive); in that of `COc1ccc2c(c1)c(/C=N/Nc1nc3ccccc3[nH]1)c(C)n2C`, 5.21% (inactive).
Consider `NC(=S)Nc1ccc(Cl)cc1Cl`, for which the activation is -0.001% (inactive).
In the case of `COc1cc(NC(C)CCc2ccccc2)cc(OC)c1OC` (configuration not stated), the activation was -0.035% (inactive).
As for `CN(Cc1nc(CCc2ccccc2)no1)Cc1cccs1`, the activation was -0.037% (inactive).
On the same count and under the same terms, the same measure for `O=c1[nH]nc(SCCS(=O)(=O)c2ccc(F)cc2)n1-c1ccccc1C(F)(F)F`: -0.024% (inactive); for `COc1ccc(N2CCN(C(=O)c3cc4c(s3)-c3ccccc3OC4)CC2)cc1`: 0.457% (inactive); for `COc1cc(/C=C2\SC(=S)N(N3CCOCC3)C2=O)cc(OC)c1OC`: 0.067% (inactive).
Turning to `Cc1nn(-c2ccccc2)c2ncc(C(=O)c3cc(Cl)ccc3O)cc12`, the activation is 0.1% (inactive).
For the molecule `Cc1cc(-c2nc(C)c(-c3nnc(SCC(=O)Nc4ccc(Cl)cc4)n3C)s2)no1`, the activation was 0.023% (inactive).
On to `COc1ccc(S(=O)(=O)Nc2cccc3c2O[C@H](CN(C)S(=O)(=O)c2cn(C)cn2)[C@H](C)CN([C@H](C)CO)C3=O)cc1`, for which the activation is -0.035% (inactive).
For `Cc1ccc(NC(=O)COc2ccc(-c3nnco3)cc2)cc1S(=O)(=O)N1CCOCC1`, the activation is -0.044% (inactive).
As to `Cc1cccc(-c2ccc([C@@H]3[C@@H](CO)N4CCCCN(S(=O)(=O)c5ccccc5F)C[C@H]34)cc2)c1`, the activation is 0% (inactive).
In the case of `Cc1ccc(S(=O)(=O)N2CCOCC2)cc1C(=O)OCC(=O)NC1CCS(=O)(=O)C1` (configuration not stated), the activation is -0.034% (inactive).
`Cc1ccc(S(=O)(=O)Nc2ccc3c(c2)C(=O)N([C@H](C)CO)C[C@@H](C)[C@@H](CN(C)Cc2ccc(Cl)c(Cl)c2)OCCCC[C@H](C)O3)cc1`: the activation is -0.031% (inactive).
Same read-out and setting: the same measure for `Cc1ccccc1NC(=O)CN1C(=O)S/C(=C\c2ccc(-c3cc(C(=O)O)ccc3C)o2)C1=O`: 0.024% (inactive).
Same read-out and setting: in the case of `CC(C)CC#Cc1ccc([C@@H]2[C@@H](CO)N3C(=O)CN(C(=O)c4cccc(F)c4)C[C@H]23)cc1` it was 0.027% (inactive); in that of `Nc1ccccc1C#CC(=O)c1ccccc1`, -0.07% (inactive); in that of `Cc1ccc(OCCN2CCN(CC(O)Cn3c4ccccc4c4ccccc43)CC2)cc1` (configuration not stated), 5.68% (inactive).
As for `Nc1c(-c2ccccc2)c(CN2CCOCC2)nn1-c1ccc(C(=O)O)cc1`, the activation was -0.014% (inactive).
On to `C/C(CC(=O)Nc1ccc(C)c(Cl)c1)=N\NC(=O)Cc1ccccc1`, for which the activation is -0.06% (inactive).
As to `O=C(N/N=C/c1ccc([N+](=O)[O-])o1)c1cc2ccccc2o1`, the activation is 4.43% (inactive).
For the molecule `CO[C@H]1CN(C)C(=O)c2ccc(NC(=O)C3CCCCC3)cc2OC[C@H](C)NC[C@@H]1C`, the activation is 0.017% (inactive).
For `COc1ccc(CNC(=O)c2ccc(-c3cnn(C)c3)c3ccoc23)cc1OC`, the activation is -0.037% (inactive).
With `Nc1ccccc1Nc1cc(-c2ccccc2)[nH]n1`, the activation is -0.047% (inactive).
With `CCOCCCNC(=O)C(c1ccc(C)cc1)N(Cc1cccs1)C(=O)c1ccccn1` (configuration not stated), the activation was 0.035% (inactive).
In the case of `Cc1cccc(-c2ccc([C@H]3[C@H](CO)N4CCCCN(C(=O)NC(C)C)C[C@@H]34)cc2)c1`, the activation is 0.105% (inactive).
As to `COc1ccccc1-c1ccc(/C=N/O)o1`, the activation was -0.003% (inactive).
`COc1ccc(NC(=O)Nc2ccc3c(c2)C(=O)N([C@@H](C)CO)C[C@H](C)[C@@H](CN(C)S(=O)(=O)c2ccc(OC)cc2)O3)cc1`: the activation was 0.014% (inactive).
For `COc1ccc(C2=C(c3ccccc3)OC(OC)c3cc(F)ccc32)cn1` (configuration not stated), the activation is 0.027% (inactive).
For `O=C(N/N=C/c1ccc(O)c2ncccc12)c1cccc(Br)c1`, the activation is -0.037% (inactive).
Turning to `COc1ccc2nc(SCC(=O)Nc3ccccc3OC)[nH]c2c1`, the activation was -0.024% (inactive).
With `COc1cc(/C=C/c2ccc3cccc(O)c3n2)ccc1O`, the activation was 3.08% (inactive).
Turning to `C[C@@H]1CN([C@H](C)CO)C(=O)c2cc(NS(=O)(=O)c3ccc(F)cc3)ccc2O[C@@H](C)CCCCO[C@@H]1CN(C)Cc1ccc2c(c1)OCO2`, the activation was 9.16% (inactive).
Regarding `Cc1cc(N)ncc1[N+](=O)[O-]`, the activation was 0.508% (inactive).
Consider `COc1ccc(C2=NOC3(CC(=O)N(c4ccc(F)cc4)C3=O)C2)cc1` (configuration not stated), for which the activation was 0.015% (inactive).
For the molecule `O=C(CSc1nc2ccccc2[nH]1)N/N=C/C=C/c1ccccc1[N+](=O)[O-]`, the activation was 0.165% (inactive).
On to `CO[C@@H]1CN(C)C(=O)c2cc(NS(C)(=O)=O)ccc2OC[C@H](C)N(C(=O)C2CCCC2)C[C@H]1C`, for which the activation is 0.988% (inactive).
Still for that read-out and setting: the same measure for `CN(C)C(=O)C[C@@H]1C=C[C@H](NS(=O)(=O)c2ccccc2)[C@@H](CO)O1`: 0.689% (inactive); for `COc1ccc(C(=O)CN2Cc3ccccc3C2=N)cc1`: 0.166% (inactive).
Take `CCOC(=O)N1CCN(Cc2cc(Cl)c3cccnc3c2O)CC1`: the activation was -0.05% (inactive).
Take `CCn1nc(C)cc1-c1nnc(Sc2ncc([N+](=O)[O-])s2)n1C`: the activation was -0.032% (inactive).
Regarding `CCCCC(=O)N(C)c1c(CC)nc2c(OCC(=O)c3ccc(F)cc3)cccn12`, the activation was -0.039% (inactive).
On to `CCCCCCCCN1C(=O)[C@H](CC(=O)N2CCSCC2)C[C@@]2(C(=O)OCC)CCCC=C12`, for which the activation was 0.117% (inactive).
As to `CCc1ccc(CCC(=O)Nc2ncc(Cc3ccccc3Cl)s2)o1`, the activation was 0.223% (inactive).
As for `CC(=O)C1=NN(c2ccc(Cl)cc2)C(c2ccc3c(c2)OCO3)N(C(C)=O)N1C` (configuration not stated), the activation was -0.032% (inactive).
The same measure, in the same setting: the same measure for `CCCCn1nnnc1C(c1ccccc1)N1CCN(c2ccc(C)cc2)CC1` (configuration not stated): 0.03% (inactive); for `Cc1nc(NC(=O)C(Cl)Cl)sc1C(=O)N(C)C`: -0.034% (inactive).
For `COc1ccc(N2C(=O)C3CCCN3C2c2cccc(OC)c2)cc1` (configuration not stated), the activation was 0.02% (inactive).
`CCOC(=O)Nc1ccc2nc(-c3cscn3)[nH]c2c1`: the activation is 0.097% (inactive).
Regarding `CC1=NN(c2ccc(C)c(C)c2)C(=O)/C1=C\C=C\c1ccc([N+](=O)[O-])o1`, the activation is -0.033% (inactive).
As to `O=C(N/N=C/c1ccc2cccnc2c1)c1nc2ccccc2c(=O)[nH]1`, the activation is 0.014% (inactive).
In the case of `COc1ccc(-n2ncc(Cl)c(Cl)c2=O)cc1`, the activation is -0.032% (inactive).
For the molecule `COc1ccc(C(=O)N/N=C/c2cc(Br)ccc2O)cc1OC`, the activation is -0.037% (inactive).
On to `O=[N+]([O-])/C=C/c1ccc2c(ccn2Cc2ccccc2)c1`, for which the activation was -0.06% (inactive).

Still in this experiment, the particulars now being: 68-5-11 mouse fibroblast XiGFP reporter, % GFP-positive imaging, 3 d; at 21 µM (top of the series); cells co-treated with 5-aza-dC sensitizer; scaled: neutral wells 0, ellipticine wells 100.
For the molecule `COc1ccc(S(=O)(=O)N(C)C[C@@H]2OCc3cn(nn3)CCCC(=O)N([C@@H](C)CO)C[C@@H]2C)cc1`, the activation is 0.05% (inactive).
As to `Cc1noc(C)c1NC(=O)N(C)C[C@@H]1Oc2ccc(NC(=O)C3CC3)cc2CC(=O)N([C@@H](C)CO)C[C@@H]1C`, the activation is -0.023% (inactive).

The values above are taken from PubChem BioAssay AID743394 (Broad Institute, 2014).
